6 compounds from US20250051344A1, “BIFUNCTIONAL SELECTIVE DEGRADERS OF SMARCA2 AND THERAPEUTIC USES THEREOF” (Nurix Therapeutics, Inc., priority 2023, published 2025) can be followed below.

One assay deals with T1, SMARCA2 (Homo sapiens, UniProt P51531).
T1 construct: endogenous in cells
Kind of assay: SMARCA2 Cellular Degradation Assay (Western blot analysis on Jess platform). Format: cell-based. Conditions: for Dmax / DC50: cellular degradation; for Fold Selectivity SMARCA4/2: ratio DC50 SMARCA4 / DC50 SMARCA2. The method in brief:
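Readout: Jess Simple Western of tumor-extracted cell lysates, SMARCA2 area over actin area after background subtraction, shown as percentage of vehicle control.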
(In general: A western blot detects proteins with antibodies after separation by electrophoresis.)

A further assay addresses T2, SMARCA4 (Homo sapiens, UniProt P51532).
T2 construct: endogenous in cells
Kind of assay: Cellular degradation assay, SMARCA4 (Table 1). It is filed as cell-based.

T2 sequence (P51532 whole entry, species assumed): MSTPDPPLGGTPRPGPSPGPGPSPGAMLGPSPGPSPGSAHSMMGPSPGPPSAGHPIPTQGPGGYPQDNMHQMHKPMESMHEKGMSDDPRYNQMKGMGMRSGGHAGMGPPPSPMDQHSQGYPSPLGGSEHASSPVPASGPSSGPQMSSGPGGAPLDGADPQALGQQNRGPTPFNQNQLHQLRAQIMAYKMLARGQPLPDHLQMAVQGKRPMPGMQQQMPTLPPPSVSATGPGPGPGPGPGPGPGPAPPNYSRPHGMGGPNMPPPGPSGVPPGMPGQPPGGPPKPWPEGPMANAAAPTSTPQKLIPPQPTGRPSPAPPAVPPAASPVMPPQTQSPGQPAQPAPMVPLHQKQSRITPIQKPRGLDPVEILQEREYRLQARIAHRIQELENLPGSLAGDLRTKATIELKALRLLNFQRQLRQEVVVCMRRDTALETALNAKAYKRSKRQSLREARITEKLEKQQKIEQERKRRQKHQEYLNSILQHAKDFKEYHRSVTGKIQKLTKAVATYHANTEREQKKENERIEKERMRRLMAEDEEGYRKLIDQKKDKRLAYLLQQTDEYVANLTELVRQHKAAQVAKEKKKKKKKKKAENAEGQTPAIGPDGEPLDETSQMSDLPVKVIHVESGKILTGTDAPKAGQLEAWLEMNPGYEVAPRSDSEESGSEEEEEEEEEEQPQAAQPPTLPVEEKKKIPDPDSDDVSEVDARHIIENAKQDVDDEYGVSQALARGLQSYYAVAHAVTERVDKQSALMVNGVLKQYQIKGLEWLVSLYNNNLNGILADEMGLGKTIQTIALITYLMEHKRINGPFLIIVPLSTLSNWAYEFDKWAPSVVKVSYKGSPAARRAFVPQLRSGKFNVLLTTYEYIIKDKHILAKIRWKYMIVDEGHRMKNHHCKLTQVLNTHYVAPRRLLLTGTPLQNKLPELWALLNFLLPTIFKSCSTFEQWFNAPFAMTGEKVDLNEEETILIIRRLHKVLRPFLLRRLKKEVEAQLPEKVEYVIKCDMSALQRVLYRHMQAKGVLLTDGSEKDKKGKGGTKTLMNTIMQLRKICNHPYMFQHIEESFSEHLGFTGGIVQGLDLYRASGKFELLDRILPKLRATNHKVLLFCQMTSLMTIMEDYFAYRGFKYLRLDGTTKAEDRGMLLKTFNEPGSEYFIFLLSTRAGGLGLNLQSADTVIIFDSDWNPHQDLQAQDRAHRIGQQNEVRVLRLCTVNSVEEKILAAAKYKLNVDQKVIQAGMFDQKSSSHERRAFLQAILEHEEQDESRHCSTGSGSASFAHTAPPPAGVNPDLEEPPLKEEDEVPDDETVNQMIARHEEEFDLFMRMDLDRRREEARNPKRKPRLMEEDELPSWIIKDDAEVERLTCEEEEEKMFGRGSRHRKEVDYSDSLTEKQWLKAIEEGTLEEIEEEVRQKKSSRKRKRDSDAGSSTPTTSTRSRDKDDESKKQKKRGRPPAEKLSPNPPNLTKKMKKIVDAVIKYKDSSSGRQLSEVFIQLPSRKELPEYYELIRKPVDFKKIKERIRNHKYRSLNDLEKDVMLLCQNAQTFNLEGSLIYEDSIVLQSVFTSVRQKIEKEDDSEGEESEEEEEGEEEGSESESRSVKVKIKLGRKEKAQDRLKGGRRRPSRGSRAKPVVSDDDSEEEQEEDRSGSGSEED
T1 sequence (P51531 whole entry, species assumed): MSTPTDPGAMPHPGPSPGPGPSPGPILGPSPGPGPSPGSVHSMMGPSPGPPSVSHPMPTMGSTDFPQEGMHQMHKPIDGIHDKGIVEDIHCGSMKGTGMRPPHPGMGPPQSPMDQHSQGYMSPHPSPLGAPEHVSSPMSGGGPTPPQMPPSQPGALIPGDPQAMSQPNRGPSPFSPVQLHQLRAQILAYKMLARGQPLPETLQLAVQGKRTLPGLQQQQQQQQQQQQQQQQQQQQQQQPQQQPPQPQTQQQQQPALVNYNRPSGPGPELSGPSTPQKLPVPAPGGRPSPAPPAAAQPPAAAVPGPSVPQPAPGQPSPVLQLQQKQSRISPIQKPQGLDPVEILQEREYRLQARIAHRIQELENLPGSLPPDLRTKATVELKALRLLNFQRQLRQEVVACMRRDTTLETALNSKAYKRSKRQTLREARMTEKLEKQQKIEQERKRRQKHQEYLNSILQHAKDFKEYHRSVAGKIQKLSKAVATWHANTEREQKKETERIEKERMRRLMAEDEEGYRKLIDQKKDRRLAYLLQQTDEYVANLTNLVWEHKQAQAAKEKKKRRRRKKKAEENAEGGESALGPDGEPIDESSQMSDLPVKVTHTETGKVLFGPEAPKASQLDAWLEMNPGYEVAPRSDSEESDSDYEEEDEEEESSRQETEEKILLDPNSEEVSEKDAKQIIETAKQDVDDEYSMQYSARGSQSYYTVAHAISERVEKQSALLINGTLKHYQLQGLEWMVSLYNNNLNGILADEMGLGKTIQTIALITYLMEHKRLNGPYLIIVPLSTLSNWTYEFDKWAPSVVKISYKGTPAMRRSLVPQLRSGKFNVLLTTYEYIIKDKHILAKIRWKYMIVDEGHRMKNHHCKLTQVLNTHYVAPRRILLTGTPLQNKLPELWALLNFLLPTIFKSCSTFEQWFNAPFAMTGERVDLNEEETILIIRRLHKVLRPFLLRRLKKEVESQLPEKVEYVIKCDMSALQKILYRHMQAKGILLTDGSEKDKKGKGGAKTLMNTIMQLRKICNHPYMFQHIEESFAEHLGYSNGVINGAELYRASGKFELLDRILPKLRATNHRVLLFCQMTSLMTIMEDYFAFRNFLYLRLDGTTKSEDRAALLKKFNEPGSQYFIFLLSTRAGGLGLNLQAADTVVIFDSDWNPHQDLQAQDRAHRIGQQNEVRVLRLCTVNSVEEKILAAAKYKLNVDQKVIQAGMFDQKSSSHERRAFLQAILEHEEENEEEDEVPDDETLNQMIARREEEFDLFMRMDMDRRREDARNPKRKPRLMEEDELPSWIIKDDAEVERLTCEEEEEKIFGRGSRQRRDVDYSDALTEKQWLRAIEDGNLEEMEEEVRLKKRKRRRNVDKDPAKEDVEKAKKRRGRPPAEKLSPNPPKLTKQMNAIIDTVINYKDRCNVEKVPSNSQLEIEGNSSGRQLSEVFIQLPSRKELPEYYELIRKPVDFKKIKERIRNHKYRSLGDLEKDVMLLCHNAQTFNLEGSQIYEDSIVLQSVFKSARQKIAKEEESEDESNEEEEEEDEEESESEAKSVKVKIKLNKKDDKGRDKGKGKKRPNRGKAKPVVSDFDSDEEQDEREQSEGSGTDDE

For `O=C1CCC(c2ccc(N3CCN(C(=O)C4CC45CCN(C(=O)C4(c6ccccc6)CCN(c6cnnc(-c7ccccc7O)c6)CC4)C5)CC3)cc2)C(=O)N1` (racemic) [Example 29, rac-(3R)-3-{4-[4-(5-{1-[6-(2-hydroxyphenyl)pyridazin-4-yl]-4-phenylpiperidine-4-carbonyl}-5-azaspiro[2.4]heptane-1-carbonyl)piperazin-1-yl]phenyl}piperidine-2,6-dione], on SMARCA2, the maximal degradation (Dmax) was found to be 5.79% and the “Fold Selectivity SMARCA4/2” value is 1. Besides, on SMARCA4, the Dmax came out at 0.46%.

In the case of `O=C1CCC(c2ccc(N3CCC(CN4CC5(C4)CN(C(=O)C4(c6cccc(Cl)c6)CCN(c6cnnc(-c7ccccc7O)c6)CC4)C5)CC3)cc2)C(=O)N1` (racemic) [Example 27, rac-(3R)-3-{4-[4-({6-[4-(3-chlorophenyl)-1-[6-(2-hydroxyphenyl)pyridazin-4-yl]piperidine-4-carbonyl]-2,6-diazaspiro[3.3]heptan-2-yl}methyl)piperidin-1-yl]phenyl}piperidine-2,6-dione], on SMARCA2, the 50% degradation concentration (DC50) is 18.2 nM, the maximal degradation (Dmax) is 72.8% and the “Fold Selectivity SMARCA4/2” value is 7.24. Besides, on SMARCA4, half-maximal degradation (DC50) was put at 132 nM and the maximal degradation (Dmax) came out at 56.5%.

On to `O=C1CCC(c2ccc(OCC3CCN(C(=O)C4(c5ccccc5)CCN(c5cnnc(-c6ccccc6O)c5)CC4)CC3)cc2)C(=O)N1` (racemic) [Example 5, rac-(3R)-3-{4-[(1-{1-[6-(2-hydroxyphenyl)pyridazin-4-yl]-4-phenylpiperidine-4-carbonyl}piperidin-4-yl)methoxy]phenyl}piperidine-2,6-dione], for which, at SMARCA2, half-maximal degradation (DC50) was put at 463 nM, the Dmax worked out at 59.8% and the “Fold Selectivity SMARCA4/2” value came out at 21.62. Besides, the Dmax on SMARCA4 came to 22.6%.

For the compound `C[C@@H](Oc1ccc(C2CCC(=O)NC2=O)cc1)C1CCN(C(=O)C2(c3ccccc3)CCN(c3cnnc(-c4ccccc4O)c3)CC2)CC1` (mixture of isomers) [Example 3, (3RS)-3-{4-[(1R)-1-(1-{1-[6-(2-hydroxyphenyl)pyridazin-4-yl]-4-phenylpiperidine-4-carbonyl}piperidin-4-yl)ethoxy]phenyl}piperidine-2,6-dione], at SMARCA2, the Dmax was found to be 54.2% and the “Fold Selectivity SMARCA4/2” value was 1. For the same compound, the maximal degradation (Dmax) at SMARCA4 was 17.5%.

Take `O=C1CC[C@H](c2ccc(N3CCC(CCN4CCC(S(=O)(=O)NCC5(c6ccccc6)CCN(c6cnnc(-c7ccccc7O)c6)CC5)CC4)CC3)cc2)C(=O)N1` (racemic) [Example 118, rac-1-(2-(1-(4-(2,6-dioxopiperidin-3-yl)phenyl)piperidin-4-yl)ethyl)-n-((1-(6-(2-hydroxyphenyl)pyridazin-4-yl)-4-phenylpiperidin-4-yl)methyl)piperidine-4-sulfonamide]: at SMARCA2, the DC50 was 8.85 nM, the Dmax came out at 84% and the “Fold Selectivity SMARCA4/2” value is recorded as 4. On SMARCA4, this compound came in with a DC50 of 35.5 nM and a maximal degradation (Dmax) of 76.5%.

As for `O=C1CC[C@H](c2ccc(N3CCC(CN4CCC5(C4)CN(C(=O)C4(c6ccccc6)CCN(c6cnnc(-c7ccccc7O)c6)CC4)C5)CC3)cc2)C(=O)N1` [Example 17, (3R)-3-(4-{4-[(2-{1-[6-(2-hydroxyphenyl)pyridazin-4-yl]-4-phenylpiperidine-4-carbonyl}-2,6-diazaspiro[3.4]octan-6-yl)methyl]piperidin-1-yl}phenyl)piperidine-2,6-dione], at SMARCA2, it took 13.9 nM to reach half-maximal degradation (DC50), the Dmax came out at 78% and the “Fold Selectivity SMARCA4/2” value was found to be 314.31. At SMARCA4, this compound displayed a DC50 of 4370 nM and a maximal degradation (Dmax) of 54.2%.

The Dmax is the greatest extent of degradation seen. A lower Dmax goes with shallow degradation. Usually DC50 stands for the concentration at which degradation of the target reaches its halfway point. A lower DC50 goes with degradation at low concentration.
